The values below come from publication PMC10126264, “Synergistic effect and antibiofilm activity of the antimicrobial peptide K11 with conventional antibiotics against multidrug-resistant and extensively drug-resistant Klebsiella pneumoniae” (Frontiers in Cellular and Infection Microbiology, 2023).

The subject of data set [1] is MDR/XDR K. pneumoniae clinical isolates. Kind of data set: Antimicrobial susceptibility testing, disk diffusion (CLSI). The conditions noted are these: all fifteen isolates, CLSI guidelines. In kind it is cell-based, Klebsiella pneumoniae. Here is the method: (§1) In this study, fifteen non-duplicate clinical isolates of MDR/XDR K. pneumoniae were obtained from the bacterial repository of the Division of Infectious Diseases and Tropical Medicine, Department of Medicine, Faculty of Medicine Siriraj Hospital, Mahidol University. […] Antimicrobial susceptibility testing was also carried out by the disk diffusion method according to CLSI guidelines ([Clinical and Laboratory Standards Institute, 2021]). Furthermore, all isolates were tested for colistin resistance by broth microdilution based on CLSI recommendations. […] The MDR bacteria was defined as bacteria that are resistant to at least one agent in three or more antimicrobial categories, while the XDR bacteria refer to bacteria that are resistant to at least one agent in all but two or fewer antimicrobial categories based on laboratory results. E. coli ATCC 25922 was used as a reference control strain for susceptibility testing. Other reference strains, including K. pneumoniae ATCC 70063 and K. pneumoniae ATCC BAA-1706 (bla KPC […]), were used as control strains throughout the study.
On the technique in general: In agar diffusion tests the substance spreads into inoculated agar from a disc or well.

The test system is the same in data set [2]. Kind of data set: microbe, parasite or virus in culture. The conditions noted are these: Klebsiella pneumoniae. Here is the method: The ability of K11 to inhibit bacterial growth was determined by the broth microdilution method ([Clinical and Laboratory Standards Institute, 2018]). Briefly, a series of 2-fold dilutions of K11 were prepared from 1,024 to 2 µg/mL in cation-adjusted Mueller-Hinton broth (CAMHB), Then 50 µL of each peptide dilution was added to each well of polystyrene 96-well U-bottom microplates. The log-phase cultures were adjusted to 0.5 McFarland standard and diluted 1:100 in CAMHB to provide the density of 10^6 CFU/mL. Consequently, 50 µL of diluted bacterial suspension was added to wells containing 50 µL of peptide solution, followed by incubation for 20-24 h at 37°C. […] To evaluate MBC, a volume of 10 μL was taken from each well with no visible growth, inoculated on Mueller-Hinton agar (MHA) plates, and incubated at 37°C. The MBC was defined as the lowest concentration of antimicrobials that killed at least 99.9% of the initial inoculums ([Clinical and Laboratory Standards Institute, 1999]).

Data set [3] concerns K. pneumoniae ATCC BAA-1706. It is filed as cell-based, Klebsiella pneumoniae. The settings on record: compared to day 1. Here is the method: The resistance development of K11, ciprofloxacin, and colistin was assessed according to the previously described protocol ([Pollard et al., 2012]). Briefly, MIC values for a K. pneumoniae ATCC BAA-1706 were first examined and recorded. […] This inoculum was subjected to another MIC assay. […] The process was repeated for 30 passages. The MIC values for K11 and antibiotics were recorded and plotted as the MIC fold change compared to day 1 of the experiment.

The conditions of data set [4]: ref Witherell et al., 2021; cited from earlier work. The source says:
K11 is a synthetic peptide derived from natural AMPs (cecropin A1, melittin, and maganin 2), composed of 20 amino acids ([…]-NH2). […] Moreover, K11 has also been successfully used in vivo as a topic hydrogel solution against Acinetobacter baumannii-infected wounds ([Rishi et al., 2018]).

For data set [5], the system named is MDR/XDR K. pneumoniae clinical isolates. Kind of data set: Colistin MIC, broth microdilution (CLSI). In kind it is cell-based, Klebsiella pneumoniae. The conditions noted are these: all fifteen isolates, resistance defined as MIC ≥4 µg/mL. Here is the method:
as §1
In general terms: Dilution methods test growth across graded concentrations, often in twofold steps.

In brackets after ≈: the same amount, converted by molar mass. Read-outs that look alike come from different tables or passages of the source.

`C[C@H]1[C@H](NC(=O)/C(=N\OC(C)(C)C(=O)O)c2csc(N)n2)C(=O)N1S(=O)(=O)O` [aztreonam]: the antimicrobial susceptibility profile result in data set [1] was “resistant”.

As for `CO/N=C(\C(=O)N[C@@H]1C(=O)N2C(C(=O)[O-])=C(C[N+]3(C)CCCC3)CS[C@H]12)c1csc(N)n1` [cefepime], in data set [1], the antimicrobial susceptibility profile entry was “resistant”.

`CO[C@@]1(NC(=O)Cc2cccs2)C(=O)N2C(C(=O)O)=C(COC(N)=O)CS[C@@H]21` [cefoxitin]: the antimicrobial susceptibility profile result in data set [1] is listed as “resistant”.

For the molecule `CC(C)(O/N=C(\C(=O)N[C@@H]1C(=O)N2C(C(=O)[O-])=C(C[n+]3ccccc3)CS[C@H]12)c1csc(N)n1)C(=O)O` [ceftazidime], the antimicrobial susceptibility profile result in data set [1] is listed as “resistant”.

Take `CO/N=C(\C(=O)N[C@@H]1C(=O)N2C(C(=O)O)=C(CSc3nc(=O)c(=O)[nH]n3C)CS[C@H]12)c1csc(N)n1` [ceftriaxone]: the antimicrobial susceptibility profile result in data set [1] is recorded as “resistant”.

With `O=C(N[C@H](CO)[C@H](O)c1ccc([N+](=O)[O-])cc1)C(Cl)Cl` [chloramphenicol], the antimicrobial susceptibility profile entry in data set [1] was “resistant”. In data set [2], this molecule displayed an MIC of 16 µg/mL (≈ 49.5 µM).

With `O=C(O)c1cn(C2CC2)c2cc(N3CCNCC3)c(F)cc2c1=O` [ciprofloxacin], the MIC fold change turned out to be 16 fold in data set [3] (after 7 serial passages at 0.5×MIC) and 64 fold in data set [3] (after 12 passages at 0.5×MIC, maintained until 30 passages).

Take `C[C@@H](O)[C@H]1C(=O)N2C(C(=O)O)=C(S[C@@H]3CN[C@H](C(=O)Nc4cccc(C(=O)O)c4)C3)[C@H](C)[C@H]12` [ertapenem]: in data set [1], the antimicrobial susceptibility profile entry is “resistant”.

In turn, `C[C@@H](O)[C@H]1C(=O)N2C(C(=O)O)=C(S[C@@H]3CN[C@H](C(=O)N(C)C)C3)[C@H](C)[C@H]12` [meropenem, reference compound] had an MIC in data set [2] of 64 µg/mL (≈ 167 µM).

For `CO[C@H]1/C=C/O[C@@]2(C)Oc3c(C)c(O)c4c(O)c(c(/C=N/N5CCN(C)CC5)c(O)c4c3C2=O)NC(=O)/C(C)=C\C=C\[C@H](C)[C@H](O)[C@@H](C)[C@@H](O)[C@@H](C)[C@H](OC(C)=O)[C@@H]1C` [rifampicin], the MIC in data set [2] came to 32 µg/mL (≈ 38.9 µM).

For the molecule colistin [reference compound], the “concentration showing significant hemolytic activity” value in data set [4] was “more than 100 μg/mL”. For the same molecule, the “MICs, all isolates” value in data set [5] is given as at least 4 µg/mL.
